The text below walks through data of patent publication US20250346602A1, “LACTAM SUBSTITUTED IMIDAZOPYRIDAZINE IL-17A MODULATORS AND USES THEREOF” (DICE ALPHA, INC., priority 2022, published 2025).

pIC50: −log10 of the molar value.

This experiment concerns the target T1, IL-17A/A (Homo sapiens, UniProt Q16552).
T1 construct: purchased Genscript Z03228
T1 sequence (Q16552 24-155): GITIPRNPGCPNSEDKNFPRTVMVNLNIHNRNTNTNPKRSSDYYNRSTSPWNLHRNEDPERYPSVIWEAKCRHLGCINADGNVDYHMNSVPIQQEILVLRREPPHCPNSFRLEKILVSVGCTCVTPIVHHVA
Kind of experiment: IL-17A/A HEK-Blue cell assay. Type of experiment: cell-based. As to conditions: HEK-Blue IL-17A reporter cell line (HEK 293), IL-17A/A stimulation, 20 hours incubation, SEAP read at A630. The procedure: The HEK-Blue IL-17A reporter cell line (Fisher #NC1408637) was used for cell-based IL-17A/A inhibition assays. Cells were grown and prepared for assays according to the manufacturer's instructions. This cell line consists of HEK 293 cells that were designed to expressed IL-17RA, IL-17RC, and the ActI adapter molecule, the combination of which, when stimulated by IL-17A/A activates a NFκB promoter and drives expression of a recombinant Secreted Alkaline Phosphatase (SEAP) gene protein. Media from the cells is then added to a development reagent (Quanti-Blue Substrate, Fisher #NC9711613), and read at A630.
Compounds were titrated in DMSO, with a top final compound concentration of 10 uM, 1 uM, or 0.3 uM, and added to the cells immediately before adding IL-17A/A (Genscript #Z03228). The cells, compound, and IL-17A/A were then incubated for 20 hours before media was removed for SEAP analysis. The resulting inhibition curve was then analyzed using Graphpad Prism 7.0, and IC50 values were determined using a 4-parameter nonlinear fit. DMSO was added to a universal final concentration of 0.1% to optimize background.
As usually defined, the pIC50 is −log10 of the IC50, conventionally taken in molar units. In the case of `CCc1nonc1C(=O)N[C@H](c1cn2nc(C[C@H]3C[C@@H](C(F)(F)F)NC3=O)ccc2n1)C1CCC(F)(F)CC1` [Compound 17, N—((S)-(4,4-difluorocyclohexyl)(6-(((3R,5S)-2-oxo-5-(trifluoromethyl)pyrrolidin-3-yl)methyl)imidazo[1,2-b]pyridazin-2-yl)methyl)-4-ethyl-1,2,5-oxadiazole-3-carboxamide], the pIC50 is 6.00 to 7.00.

`CCn1nccc1C(=O)N[C@H](c1cn2nc(CC3C[C@H](C(F)(F)F)CNC3=O)ccc2n1)C1CCC(F)(F)CC1` (stereo partly drawn) [Compound 152, N-((1S)-(4,4-difluorocyclohexyl)(6-(((5S)-2-oxo-5-(trifluoromethyl)piperidin-3-yl)methyl)imidazo[1,2-b]pyridazin-2-yl)methyl)-1-ethyl-1H-pyrazole-5-carboxamide]: the pIC50 was 6.00 to 7.00.

On to `CCn1nccc1C(=O)N[C@H](c1cn2nc(CC3CC(F)(F)CNC3=O)ccc2n1)C(C1CC1)C1CC1` (single isomer, unassigned) [Compound 28], for which the pIC50 was 6.00 to 7.00.

`CC(C)c1nonc1C(=O)N[C@H](c1cn2nc(CC3C[C@@H](C(F)(F)F)CNC3=O)ccc2n1)[C@@H]1CCCC(F)(F)C1` (stereo partly drawn) [Compound 151, N-((1S)—((R)-3,3-difluorocyclohexyl)(6-(((5R)-2-oxo-5-(trifluoromethyl)piperidin-3-yl)methyl)imidazo[1,2-b]pyridazin-2-yl)methyl)-4-isopropyl-1,2,5-oxadiazole-3-carboxamide]: the pIC50 was > 7.00.

For the molecule `CC(C)c1nocc1C(=O)N[C@H](c1cn2nc(CC3C[C@@H](C(F)(F)F)CNC3=O)ccc2n1)C1CCC(F)(F)CC1` (stereo partly drawn) [Compound 102, N-((1S)-(4,4-difluorocyclohexyl)(6-(((5R)-2-oxo-5-(trifluoromethyl)piperidin-3-yl)methyl)imidazo[1,2-b]pyridazin-2-yl)methyl)-3-isopropylisoxazole-4-carboxamide], the pIC50 is > 7.00.

In the case of `CCn1nccc1C(=O)N[C@H](c1cn2nc(CC3CC(F)(F)CNC3=O)c(NC(=O)OC)cc2n1)C1CCC(F)(F)CC1` (stereo partly drawn) [Compound 72, methyl (6-((5,5-difluoro-2-oxopiperidin-3-yl)methyl)-2-((S)-(4,4-difluorocyclohexyl)(1-ethyl-1H-pyrazole-5-carboxamido)methyl)imidazo[1,2-b]pyridazin-7-yl)carbamate], the pIC50 is 6.00 to 7.00.

For the molecule `O=C(N[C@H](c1cn2nc(CC3C[C@@H](C(F)(F)F)CNC3=O)ccc2n1)C1CCC(F)(F)CC1)c1ccnn1CC(F)(F)F` (stereo partly drawn) [Compound 105, N-((1S)-(4,4-difluorocyclohexyl)(6-(((5R)-2-oxo-5-(trifluoromethyl)piperidin-3-yl)methyl)imidazo[1,2-b]pyridazin-2-yl)methyl)-1-(2,2,2-trifluoroethyl)-1H-pyrazole-5-carboxamide], the pIC50 was 6.00 to 7.00.

With `CCn1nccc1C(=O)N[C@H](c1cn2nc(CC3CC(F)(F)CNC3=O)c(NC)cc2n1)C1CCC(F)(F)CC1` (single isomer, unassigned) [Compound 74], the pIC50 was < 6.00.

In the case of `O=C(N[C@H](c1cn2nc(CC3C[C@@H](C(F)(F)F)CNC3=O)ccc2n1)C1CCC(F)(F)CC1)c1conc1CC(F)F` (stereo partly drawn) [Compound 120, N-((1S)-(4,4-difluorocyclohexyl)(6-(((5R)-2-oxo-5-(trifluoromethyl)piperidin-3-yl)methyl)imidazo[1,2-b]pyridazin-2-yl)methyl)-3-(2,2-difluoroethyl)isoxazole-4-carboxamide], the pIC50 is 6.00 to 7.00.

For `CCn1nccc1C(=O)N[C@H](c1cn2nc(CC3CCCNC3=O)ccc2n1)C1CCCCCC1` (single isomer, unassigned) [Compound 12], the pIC50 is > 7.00.

For the molecule `Cc1nonc1C(=O)N[C@H](c1cn2nc(C[C@H]3CCCNC3=O)ccc2n1)C1CCC(F)(F)CC1` [Compound 38, N—((S)-(4,4-difluorocyclohexyl)(6-(((R)-2-oxopiperidin-3-yl)methyl)imidazo[1,2-b]pyridazin-2-yl)methyl)-4-methyl-1,2,5-oxadiazole-3-carboxamide], the pIC50 is < 6.00.

As for `O=C(N[C@H](c1cn2nc(CC3C[C@@H](C(F)(F)F)CNC3=O)ccc2n1)[C@H]1CCCC(F)(F)C1)c1conc1C1CC1` (stereo partly drawn) [Compound 146, 3-cyclopropyl-N-((1S)—((S)-3,3-difluorocyclohexyl)(6-(((5R)-2-oxo-5-(trifluoromethyl)piperidin-3-yl)methyl)imidazo[1,2-b]pyridazin-2-yl)methyl)isoxazole-4-carboxamide], the pIC50 was > 7.00.

Turning to `CCn1nccc1C(=O)N[C@H](c1cn2nc(CC3C(=O)NCC3C(F)(F)F)ccc2n1)C(C1CC1)C1CC1` (single isomer, unassigned) [Compound 46], the pIC50 was < 6.00.

As for `CCn1nccc1C(=O)N[C@H](c1cn2ncc(CC3C[C@H](C(F)(F)F)CNC3=O)cc2n1)C(C1CC1)C1CC1` (single isomer, unassigned) [Compound 209], the pIC50 was < 6.00.

Regarding `CCn1nccc1C(=O)N[C@H](c1cn2nc(CC3C[C@@H](C(F)(F)F)CNC3=O)ccc2n1)[C@H]1CCCC(F)(F)C1` (stereo partly drawn) [Compound 142, N-((1S)—((S)-3,3-difluorocyclohexyl)(6-(((5R)-2-oxo-5-(trifluoromethyl)piperidin-3-yl)methyl)imidazo[1,2-b]pyridazin-2-yl)methyl)-1-ethyl-1H-pyrazole-5-carboxamide], the pIC50 is > 7.00.

For the molecule `CCn1nccc1C(=O)N[C@H](c1cn2nc(CC3C[C@@H](C(F)(F)F)CNC3=O)ccc2n1)C1CCCCC1` (stereo partly drawn) [Compound 191, N-((1S)-cyclohexyl(6-(((5R)-2-oxo-5-(trifluoromethyl)piperidin-3-yl)methyl)imidazo[1,2-b]pyridazin-2-yl)methyl)-1-ethyl-1H-pyrazole-5-carboxamide], the negative logarithm of the IC50 (pIC50) is 6.00 to 7.00.

For the molecule `CCn1nccc1C(=O)N[C@H](c1cn2nc(CC3C[C@@H](C(F)(F)F)CNC3=O)c(N(C)C3CC3)cc2n1)C1CCC(F)(F)CC1` (single isomer, unassigned) [Compound 91], the pIC50 was > 7.00.

As for `CC(C)n1nncc1C(=O)N[C@H](c1cn2nc(CC3C[C@@H](C(F)(F)F)CNC3=O)ccc2n1)C1CCC(F)(F)CC1` (stereo partly drawn) [Compound 107, N-((1S)-(4,4-difluorocyclohexyl)(6-(((5R)-2-oxo-5-(trifluoromethyl)piperidin-3-yl)methyl)imidazo[1,2-b]pyridazin-2-yl)methyl)-1-isopropyl-1H-1,2,3-triazole-5-carboxamide], the pIC50 is 6.00 to 7.00.

In the case of `CCn1nccc1C(=O)N[C@H](c1cn2nc(CC3C[C@@H](C(F)(F)F)CNC3=O)c(N(C)C3CCOCC3)cc2n1)C1CCC(F)(F)CC1` (single isomer, unassigned) [Compound 93], the pIC50 was 6.00 to 7.00.

Consider `CCn1nncc1C(=O)N[C@H](c1cn2nc(CC3C[C@@H](C(F)(F)F)CNC3=O)ccc2n1)C1CCC(F)(F)CC1` (stereo partly drawn) [Compound 108, N-((1S)-(4,4-difluorocyclohexyl)(6-(((5R)-2-oxo-5-(trifluoromethyl)piperidin-3-yl)methyl)imidazo[1,2-b]pyridazin-2-yl)methyl)-1-ethyl-1H-1,2,3-triazole-5-carboxamide], for which the pIC50 was 6.00 to 7.00.
